Test results from US5334728A (The Trustees of The University of Pennsylvania, priority 1992, dated 1994).
Like-named read-outs stand apart in the source and are kept apart here. Values belong to the compound of their own block, whether it stands above or below them.

Experiments:
dopamine D-2 receptor [1] = target: T1, dopamine D-2 receptor (Rattus norvegicus, UniProt P61169); test: Competition binding using [^125 I]IBF, rat striatal membranes; details: [^125 I]IBF 0.15-0.30 nM, mean ± SEM of three to five determinations
T1 construct: Striatal tissues were excised, pooled and homogenized in 100 volumes (w/v) of ice-cold Tris-HCl buffer; from tissue; host or cells: rat striatum (male Sprague-Dawley), twice-centrifuged membrane homogenate
Experimental: *0.15-0.30 nM [^125 I]IBF was incubated in the presence of the
(§1) indicated compounds in 7-11 concentrations and of membrane preparation
(§2) from rat striatum. Each value represents the mean ± SEM of three to
(§3) Male Sprague-Dawley rats (200-250 g) were decapitated, and the brains were removed and placed in ice. Striatal tissues were excised, pooled and homogenized in 100 volumes (w/v) of ice-cold Tris-HCl buffer (50 mM), pH 7.4. The homogenates were centrifuged at 20,000× g for 20 min. The resultant pellets were rehomogenized in the same buffer and centrifuged again. The final pellets were resuspended in assay buffer containing: 50 mM Tris buffer pH 7.4, 120 mM NaCl, 5 mM KCl, 2 mM CaCl2 and 1 mM MgCl2 and kept at -20° C. for the following binding assay.
(§4) The binding assays were performed by incubating 50 μl of tissue preparations containing 40-60 μg of protein with appropriate amounts of l-125 labeled ligand and competitors in a total volume of 0.2 ml of the assay buffer. After an incubation period of 15 min at 37° C. (with stirring), the samples were rapidly filtered in the cell harvester (Brandel M-24R) under vacuum through Whatman GF/B glass fiber filters pretreated with 0.2% protamine base and washed with 3×5 ml of cold (4° C.) 50 mM Tris-HCl buffer, pH 7.4. […] The filters were counted in a gamma counter (Beckman 5500) at an efficiency of 70%.

D-2 dopamine receptor [2] = details: read-out: IC50 against [H^3]spiperone binding of rat striatal tissue preparation; Table 1 footnote; cited from earlier work
D-2 dopamine receptor [3] = details: cited from earlier work; for affinity and selectivity to the D-2 dopamine receptor: striatal membrane preparation; for Kd: Table 1, in vitro binding; for affinity for D-2 dopamine receptor / nonspecific binding: rat striatum tissue preparations
D-2 dopamine receptors = target: T2, D-2 dopamine receptors (Rattus norvegicus, UniProt P61169); test: Competition binding using [^125 I]IBZM, rat striatal membranes
T2 construct: Striatal tissues were excised, pooled and homogenized in 100 volumes (w/v) of ice-cold Tris-HCl buffer; from tissue; host or cells: rat striatum (male Sprague-Dawley), twice-centrifuged membrane homogenate
Experimental: *0.15-0.4 nM [^125 I]IBZM was incubated in the presence of the
as §1, §2, §3, §4

[4] = tested on: CNS D-2 dopamine receptor; details: cited from earlier work
[5] = Biodistribution in rats after IV injection; format: in vivo, rat; details: IV, average of 3 rats ± SD
Experimental: Male Sprague Dawley rats (225-300 g), which were allowed free access to food and water, were used for in vivo biodistribution study. While under halothane anesthesia, 0.2 ml of a saline solution containing [^125 l]IBF, 21, (8-10 μCi) was injected directly into the femoral vein, and the rats were sacrificed at various time points postinjection by cardiac excision under halothane anesthesia. The organs of interest were removed, weighed and the radioactivity was counted using a Beckman gamma automatic counter (Model 4000). The percent dose per organ was calculated by a comparison of the tissue counts to suitably diluted aliquots of the injected material. Total activities of blood and muscle were calculated assuming that they are 7% and 40% of total body weight, respectively.

D-2 dopamine receptor [6] = details: cited from earlier work; for nonspecific binding: in vitro
D-2 dopamine receptor [7] = details: cited from earlier work
dopamine D-2 receptor [8] = target: T1, dopamine D-2 receptor; test: Saturation binding of [^125 I]IBF to rat striatal homogenate in vitro; details: saturation curve, FIG. 1
Experimental: as §3, §4

[9] = [^125 I]IBZM 0.15-0.4 nM, mean ± SEM of three to five determinations
[10] = N-methylspiperone imaging agent, determined earlier

T2 sequence (P61169 whole entry): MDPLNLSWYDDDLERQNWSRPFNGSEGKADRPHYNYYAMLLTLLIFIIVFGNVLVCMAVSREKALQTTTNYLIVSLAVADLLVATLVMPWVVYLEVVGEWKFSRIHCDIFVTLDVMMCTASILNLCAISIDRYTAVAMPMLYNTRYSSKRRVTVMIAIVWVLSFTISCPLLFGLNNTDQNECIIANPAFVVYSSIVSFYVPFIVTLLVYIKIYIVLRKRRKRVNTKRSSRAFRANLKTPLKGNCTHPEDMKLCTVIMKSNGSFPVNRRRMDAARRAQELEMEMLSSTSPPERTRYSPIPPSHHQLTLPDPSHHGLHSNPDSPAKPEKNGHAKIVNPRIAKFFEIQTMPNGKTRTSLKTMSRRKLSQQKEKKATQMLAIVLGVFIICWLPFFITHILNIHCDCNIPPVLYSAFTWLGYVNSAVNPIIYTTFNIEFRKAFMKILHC
T1 sequence (P61169 whole entry): as above

Structure (SMILES): CCN1CCC[C@H]1CNC(=O)c1cc(I)ccc1OC [Iodopride]
- IC50 (D-2 dopamine receptor [2]): 3 nM
- affinity and selectivity to the D-2 dopamine receptor (D-2 dopamine receptor [3]): very high affinity and selectivity

Structure (SMILES): CN1CN(c2ccccc2)C2(CCN(CCCC(=O)c3ccc(F)cc3)CC2)C1=O [N-methylspiperone]
- Bmax [4, 10]: 16.6 pmol/g
- Kd [4, 10]: 0.097 nM

Structure (SMILES): CCN1CCC[C@H]1CNC(=O)c1c(O)cccc1OC [BZM]
- Kd (D-2 dopamine receptor [3]): 31.1 nM

Structure (SMILES): O=C(CCCN1CCC2(CC1)C(=O)NCN2c1ccccc1)c1ccc(F)cc1I [2'-ISP]
- D-2 specificity (D-2 dopamine receptor [6]): excellent D-2 specificity
- nonspecific binding (D-2 dopamine receptor [6]): 40%
- Kd (D-2 dopamine receptor [6]; rat striatum): 0.25 nM

Structure (SMILES): CCN1CCC[C@H]1CNC(=O)c1c(O)c(Cl)cc(Cl)c1OC [Raclopride]
- Kd (D-2 dopamine receptor [3]): 1.1 nM
- affinity for D-2 dopamine receptor (D-2 dopamine receptor [3]): high affinity
- nonspecific binding (D-2 dopamine receptor [3]): low nonspecific binding

Structure (SMILES): CCN1CCC[C@H]1CNC(=O)c1c(O)c(Cl)cc(Cl)c1O[11CH3] (racemic) [[^11 C]raclopride]
- affinity constant Kd ([4]; living human brain, PET, equilibrium model and Scatchard plots): 7.1 nM
- Bmax ([4]; living human brain, PET): 15 pmol/mL
- ratio of specific striatal to nonspecific cerebellar binding ([4]; living human brain, PET): high ratio

Structure (SMILES): CCN1CCC[C@H]1CNC(=O)c1c(OC)ccc([123I])c1O [S-[^123 I]IBZM]
- basal ganglia uptake, planar imaging (D-2 dopamine receptor [7]; immediately after intravenous injection, humans): high concentration in basal ganglia of the brain
- basal ganglia uptake, SPECT (D-2 dopamine receptor [7]; normal human brain, 1 hour postinjection): highly specific uptake in the basal ganglia of the brain

Structure (SMILES): CCc1cc(Cl)c(OC)c(C(=O)NC[C@@H]2CCCN2CC)c1O [Eticlopride]
- Kd (D-2 dopamine receptor [3]): 0.17 nM
- affinity for D-2 dopamine receptor (D-2 dopamine receptor [3]): high affinity
- nonspecific binding (D-2 dopamine receptor [3]): low nonspecific binding

Structure (SMILES): COc1cc(N=[N+]=[N-])c(I)cc1C(=O)NC1CCN(Cc2ccccc2)CC1 [Iodoazidoclebopride]
- Kd (D-2 dopamine receptor [3]): 14 nM
- affinity and selectivity to the D-2 dopamine receptor (D-2 dopamine receptor [3]): very high affinity and selectivity

Structure (SMILES): NC1CCc2cc(O)c(O)cc2C1 (single isomer, unassigned; (+)) [(+) ADTN,6,7]
- Ki (dopamine D-2 receptor [1]): 65.7 ± 13 nM

Further lines, with some results ahead:

- Ki (dopamine D-2 receptor [1]): 491 ± 49 nM
Structure (SMILES): O=C(c1ccc(F)cc1)C1CCN(CCn2c(=O)[nH]c3ccccc3c2=O)CC1 [Ketanserin]

- Ki (D-2 dopamine receptors; [9]): 280 ± 47 nM
Structure (SMILES): CCN1CCC[C@H]1CNC(=O)c1cc2cc(Br)ccc2cc1O [Comparative Cpd. A, reference compound]

- Ki (D-2 dopamine receptors; [9]): 30 ± 4.2 nM
- Ki (D-2 dopamine receptors; [^125 I]IBZM binding): 30 nM
Structure (SMILES): CCN1CCC[C@H]1CNC(=O)c1cc2ccccc2cc1OC [Compound 11, (S)-(-)-3-Methoxy-N-[(1-ethyl-2-pyrrolidinyl)methyl]naphthyl-2-carboxamide]

- Ki (dopamine D-2 receptor [1]): 0.261 ± 0.018 nM
Structure (SMILES): CCN1CCC[C@H]1CNC(=O)c1c(OC)ccc(I)c1O [IBZM]
- Kd (D-2 dopamine receptor [3]): 0.43 nM
- affinity and selectivity to the D-2 dopamine receptor (D-2 dopamine receptor [3]): very high affinity and selectivity

- Ki (D-2 dopamine receptors; [9]): 135 ± 22 nM
- Ki (D-2 dopamine receptors; [^125 I]IBZM binding): 135 nM
Structure (SMILES): CCN1CCC[C@H]1CNC(=O)c1cccc2c1OCC2 [Compound 23, 7-N-[(1-ethyl-2-pyrrolidinyl)methyl]carboxamido-2,3-dihydrobenzofuran]

- Ki (D-2 dopamine receptors; [9]): 507 ± 29 nM
Structure (SMILES): CCN1CCC[C@H]1CNC(=O)c1c(OC)ccc2ccccc12 [Comparative Cpd. B, 2-Methoxy-N-[(1-ethyl-2-pyrrolidinyl)methyl]naphthyl-1-carboxamide, reference compound]

- Brain uptake ([5]; 2 min): 2.87 % Dose/Organ
- Thyroid uptake ([5]; 60 min): 0.1 % Dose/Organ
Structure (SMILES): CCN1CCC[C@H]1CNC(=O)c1c(OC)ccc([125I])c1O [[^125 I]IBZM, reference compound]
- nonspecific binding (D-2 dopamine receptor [6]): 5%

- Ki (D-2 dopamine receptors; [9]): 168 ± 13 nM
- Ki (D-2 dopamine receptors; [^125 I]IBZM binding): 168 nM
Structure (SMILES): CCN1CCC[C@H]1CNC(=O)c1cc2cc(I)ccc2cc1OC [Compound 8, (S)-(-)-7-Iodo-3-methoxy-N-[(1-ethyl-2-pyrrolidinyl)methyl]naphthyl-2-carboxamide]

- Ki (dopamine D-2 receptor [1]): 0.085 ± 0.01 nM
- Ki (D-2 dopamine receptors; [9]): 0.33 ± 0.02 nM
- Ki (D-2 dopamine receptors; [^125 I]IBZM binding): 0.23 nM
- times more effective than the bromine atom for increasing competitive binding affinity (D-2 dopamine receptors; iodo (21) vs bromo (19)): sixteen
- nonspecific binding (dopamine D-2 receptor [8]): low nonspecific binding
Structure (SMILES): CCN1CCC[C@H]1CNC(=O)c1cc(I)cc2c1OCC2 [Compound 21, 5-Iodo-7-N-[(1-ethyl-2-pyrrolidinyl)methyl]carboxamido-2,3-dihydrobenzofuran]

- Ki (D-2 dopamine receptors; [9]): 82 ± 12 nM
- Ki (D-2 dopamine receptors; [^125 I]IBZM binding): 82 nM
Structure (SMILES): CCN1CCC[C@H]1CNC(=O)c1cc2cc(Br)ccc2cc1OC [Compound 6, S-(-)-7-Bromo-3-methoxy-N[(1-ethyl-2-pyrrolidinyl)methyl]naphthyl-2-carboxamide]
